Experimental data taken from patent US20240182481A1 (Tango Therapeutics, Inc., priority 2021, published 2024).

Key:
[1] = system: HCC1954 (BRCA1 WT) cell line; assay: Viability assay in BRCA1 WT cell line HCC1954; format: cell-based; conditions: Homo sapiens, read-out: HCC 1954 IC50 rel IC50
Text: (§1) Table 1 also indicates IC50 values in a viability assay for a non-isogenic pair of BRCA1 mutant (column 5—MDA-MB-436) and BRCA1 WT (column 6—HCC1954) cell lines. These values indicate the effect of treatment with compound on cell survival.

[2] = biological target: USP1-UAF1 (Homo sapiens, UniProt O94782); assay: Ubiquitin Rhodamine assay for USP1-UAF1 activity; format: biochemical
Sequence of USP1-UAF1 (O94782 whole entry): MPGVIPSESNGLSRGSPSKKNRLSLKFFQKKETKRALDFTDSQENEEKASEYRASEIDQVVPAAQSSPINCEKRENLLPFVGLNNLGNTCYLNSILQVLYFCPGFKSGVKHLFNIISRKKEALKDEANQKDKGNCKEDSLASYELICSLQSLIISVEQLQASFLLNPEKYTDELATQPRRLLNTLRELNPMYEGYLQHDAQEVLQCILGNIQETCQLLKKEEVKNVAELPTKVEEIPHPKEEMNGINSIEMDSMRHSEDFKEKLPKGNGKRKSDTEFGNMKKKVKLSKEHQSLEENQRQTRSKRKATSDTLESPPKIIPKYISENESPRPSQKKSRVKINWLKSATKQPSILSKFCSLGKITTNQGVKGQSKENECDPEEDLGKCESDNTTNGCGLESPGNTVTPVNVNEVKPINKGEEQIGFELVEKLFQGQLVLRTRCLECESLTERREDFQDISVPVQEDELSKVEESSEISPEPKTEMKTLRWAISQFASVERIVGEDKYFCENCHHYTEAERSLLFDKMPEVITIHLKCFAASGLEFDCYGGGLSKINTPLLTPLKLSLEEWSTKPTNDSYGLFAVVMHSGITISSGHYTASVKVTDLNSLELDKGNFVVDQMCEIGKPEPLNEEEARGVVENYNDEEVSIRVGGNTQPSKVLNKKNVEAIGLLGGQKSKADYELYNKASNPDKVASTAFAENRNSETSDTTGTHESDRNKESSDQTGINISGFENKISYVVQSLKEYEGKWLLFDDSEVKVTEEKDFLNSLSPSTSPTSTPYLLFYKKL
Sequence of USP1-UAF1 (Q8TAF3 whole entry partner): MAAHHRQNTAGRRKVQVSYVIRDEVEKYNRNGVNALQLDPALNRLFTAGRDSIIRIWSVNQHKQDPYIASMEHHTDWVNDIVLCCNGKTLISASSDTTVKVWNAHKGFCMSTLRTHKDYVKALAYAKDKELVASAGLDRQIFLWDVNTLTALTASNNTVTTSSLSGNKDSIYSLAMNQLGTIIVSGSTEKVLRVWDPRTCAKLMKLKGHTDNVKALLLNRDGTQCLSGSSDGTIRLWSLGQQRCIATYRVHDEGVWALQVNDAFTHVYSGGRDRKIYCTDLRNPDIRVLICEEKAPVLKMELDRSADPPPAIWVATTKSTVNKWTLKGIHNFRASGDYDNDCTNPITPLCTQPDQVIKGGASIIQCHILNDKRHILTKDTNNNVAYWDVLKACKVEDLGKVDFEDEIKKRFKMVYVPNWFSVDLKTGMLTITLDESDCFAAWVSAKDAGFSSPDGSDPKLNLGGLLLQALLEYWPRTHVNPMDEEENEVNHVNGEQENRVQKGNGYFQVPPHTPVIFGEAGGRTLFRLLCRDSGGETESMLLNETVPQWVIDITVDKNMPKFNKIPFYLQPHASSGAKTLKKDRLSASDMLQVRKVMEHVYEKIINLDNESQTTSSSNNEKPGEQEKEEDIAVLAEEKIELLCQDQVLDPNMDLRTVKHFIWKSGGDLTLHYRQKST
Experimental: Certain compounds of the disclosure were assessed for USP1-UAF1 activity in a Ubiquitin Rhodamine assay as described in Example 135.

[3] = system: MDA-MB-436 (BRCA1 mutant) cell line; assay: Viability assay in BRCA1 mutant cell line MDA-MB-436; format: cell-based; conditions: Homo sapiens, MDA-MB-436, viability, BRCA1 mutant MDA-MB-436; read-out: MDA-MB-436 rel IC50
Text: as §1

[4] = system: monoubiquitinated PCNA; assay: AlphaLISA assay measuring monoubiquitinated PCNA in MDA-MB-436; format: cell-based; conditions: Homo sapiens, read-out: Alpha LISA IC50
Text: Table 1 also indicates IC50 values for exemplary compounds in an AlphaLISA assay measuring monoubiquitinated PCNA in a BRCA1 mutant cell line (MDA-MB-436; column 7).

IC50 [1] | IC50 [2] | IC50 [3] | IC50 [4] | Compound
≥ 10000 nM | < 30 nM | < 100 nM | < 100 nM | COc1ncnc(C2CC2)c1-c1ncc2[nH]cc(Cc3ccc(-c4nc(C(F)(F)F)cn4C)c(C)c3)c2n1 [Compound 113]
≥ 10000 nM | 30 to 100 nM | < 100 nM | 100 to 250 nM | COc1ncnc(C2CC2)c1-c1ncc2[nH]cc(Cc3ccc(-c4nc(C(F)(F)F)cn4C4COC4)cc3)c2n1 [Compound 154, 2-(4-cyclopropyl-6-methoxy-pyrimidin-5-yl)-7-[[4-[1-(oxetan-3-yl)-4-(trifluoromethyl)imidazol-2-yl]phenyl]methyl]-5H-pyrrolo[3,2-d]pyrimidine]
250 to 10000 nM | < 30 nM | < 100 nM | < 100 nM | COc1ncnc(C2CC2)c1-c1ncc2[nH]cc(Cc3ccc(-c4nc(C(F)(F)F)cn4C4CC4)cc3)c2n1 [Compound 81, 2-(4-cyclopropyl-6-methoxy-pyrimidin-5-yl)-7-[[4-[1-cyclopropyl-4-(trifluoromethyl)imidazol-2-yl]phenyl]methyl]-5H-pyrrolo[3,2-d]pyrimidine]
≥ 10000 nM | < 30 nM | < 100 nM | < 100 nM | COc1ncnc(C2CC2)c1-c1ncc2[nH]nc(Cc3ccc(-c4nc(C(F)(F)F)cn4C)c(F)c3)c2n1 [Compound 90, 5-(4-cyclopropyl-6-methoxypyrimidin-5-yl)-3-(3-fluoro-4-(1-methyl-4-(trifluoromethyl)-1H-imidazol-2-yl)benzyl)-1H-pyrazolo[4,3-d]pyrimidine]
≥ 10000 nM | < 30 nM | < 100 nM | < 100 nM | CCn1cc(C(F)(F)F)nc1-c1ccc(Cc2n[nH]c3cnc(-c4c(OC)ncnc4C4CC4)nc23)cc1 [Compound 165, 5-(4-cyclopropyl-6-methoxypyrimidin-5-yl)-3-(4-(1-ethyl-4-(trifluoromethyl)-1H-imidazol-2-yl)benzyl)-1H-pyrazolo[4,3-d]pyrimidine]
250 to 10000 nM | 100 to 10000 nM | 250 to 10000 nM | 100 to 250 nM | COC(c1ccc(-c2nc(C(F)(F)F)cn2C)cc1)c1c[nH]c2cnc(-c3ccccc3C(C)C)nc12 (stereo not drawn) [Compound 73, 2-(2-isopropylphenyl)-7-[methoxy-[4-[1-methyl-4-(trifluoromethyl)imidazol-2-yl]phenyl]methyl]-5H-pyrrolo[3,2-d]pyrimidine]
